Reference: patent publication US20170209432A1, “LYSINE DEMETHYLASE INHIBITORS FOR MYELOPROLIFERATIVE OR LYMPHOPROLIFERATIVE DISEASES OR DISORDERS” (ORYZON GENOMICS S.A., priority 2011, published 2017)
Like-named read-outs stand apart in the source and are kept apart here.

Assays:
platelets = experiment: Platelet levels in mice after 5 consecutive once daily injections; assay type: in vivo, mice (Hsd:Athymic Nude-Foxn1nu); conditions: blood 60min after last dose
Method: On the fifth day, 60min after the administration, mice were sacrificed and blood was collected in sodium citrate-containing tubes for haemogram analysis. Platelet levels were determined and referred as % of platelets compared with the levels found in mice treated with vehicle. Platelet levels were determined in a standard hematology analyzer (Abacus Junior Vet, from Diatron) following the manufacturer's instructions.
20% 2-hydroxypropyl-β-cyclodextrin in H2O was used as a vehicle. When necessary, 10% DMSO was also added in the vehicle. Each day, compounds were administered in a single intraperitoneal injection with administration volumes of 15 ml/kg.
Mice strain was Hsd:Athymic Nude-Foxn1nu. Animals were maintained in air and temperature controlled cages with regular supply of water and food.

LSD1 = LSD1 (Homo sapiens, UniProt O60341); experiment: LSD1 demethylase inhibition, Amplex Red peroxide/peroxidase-coupled assay; assay type: biochemical; design: purchased BPS Bioscience Inc
Source text: Compounds for use in the methods of the invention can be identified by their ability to inhibit LSD1. The ability of the compounds of the invention to inhibit LSD1 can be tested as follows. Human recombinant LSD1 protein was purchased from BPS Bioscience Inc. In order to monitor LSD1 enzymatic activity and/or its inhibition rate by our inhibitor(s) of interest, di-methylated H3-K4 peptide (Millipore) was chosen as a substrate. The demethylase activity was estimated, under aerobic conditions, by measuring the release of H2O2 produced during the catalytic process, using the Amplex® Red peroxide/peroxidase-coupled assay kit (Invitrogen).
Within the experiment, each concentration of inhibitor was tested in triplicate. […] The enzymatic reactions were set up in a 50 mM sodium phosphate, pH 7.4 buffer. At the end of the incubation, Amplex® Red reagent and horseradish peroxidase (HPR) solution were added to the reaction according to the recommendations provided by the supplier (Invitrogen), and left to incubate for 30 extra minutes at room temperature in the dark. A 1 μM H2O2 solution was used as a control of the kit efficiency. The conversion of the Amplex® Red reagent to resorufin due to the presence of H2O2 in the assay, was monitored by fluorescence (excitation at 540 nm, emission at 590 nm) using a microplate reader (Infinite 200, Tecan). Arbitrary units were used to measure level of H2O2 produced in the absence and/or in the presence of inhibitor.
The maximum demethylase activity of LSD1 was obtained in the absence of inhibitor and corrected for background fluorescence in the absence of LSD1. The Ki (IC50) of each inhibitor was estimated at half of the maximum activity.

[1] = target: T1, Human recombinant monoamine oxidase MAO-A (Homo sapiens, UniProt P21397); experiment: MAO-A inhibition, kynuramine fluorescence assay; assay type: biochemical
T1 construct: purchased Sigma Aldrich
T1 sequence (P21397 1-527): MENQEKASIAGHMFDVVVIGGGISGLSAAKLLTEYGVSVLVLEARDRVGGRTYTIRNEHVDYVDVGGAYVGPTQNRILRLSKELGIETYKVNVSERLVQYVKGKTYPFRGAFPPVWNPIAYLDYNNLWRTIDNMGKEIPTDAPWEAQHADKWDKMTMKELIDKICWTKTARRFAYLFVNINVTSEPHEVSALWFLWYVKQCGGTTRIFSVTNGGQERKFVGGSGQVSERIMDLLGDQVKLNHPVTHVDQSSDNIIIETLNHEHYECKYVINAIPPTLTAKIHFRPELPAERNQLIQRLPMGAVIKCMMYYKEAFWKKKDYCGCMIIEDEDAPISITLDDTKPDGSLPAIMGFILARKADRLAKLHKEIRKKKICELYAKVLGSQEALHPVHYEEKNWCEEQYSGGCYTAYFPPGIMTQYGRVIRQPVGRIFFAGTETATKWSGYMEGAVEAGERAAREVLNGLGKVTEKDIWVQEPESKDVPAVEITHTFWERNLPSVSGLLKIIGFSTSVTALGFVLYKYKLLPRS
Source text: (§1) Human recombinant monoamine oxidase proteins MAO-A and MAO-B were purchased from Sigma Aldrich. MAOs catalyze the oxidative deamination of primary, secondary and tertiary amines. In order to monitor MAO enzymatic activities and/or their inhibition rate by inhibitor(s) of interest, a fluorescent-based (inhibitor)-screening assay was set up. 3-(2-Aminophenyl)-3-oxopropanamine (kynuramine dihydrobromide, Sigma Aldrich), a non fluorescent compound was chosen as a substrate. Kynuramine is a non-specific substrate for both MAOs activities. While undergoing oxidative deamination by MAO activities, kynuramine is converted into 4-hydroxyquinoline (4-HQ), a resulting fluorescent product.
The monoamine oxidase activity was estimated by measuring the conversion of kynuramine into 4-hydroxyquinoline. Assays were conducted in 96-well black plates with clear bottom (Corning) in a final volume of 100 μL. The assay buffer was 100 mM HEPES, pH 7.5. Each experiment was performed in triplicate within the same experiment.
Briefly, a fixed amount of MAO (0.25 μg for MAO-A and 0.5 μg for MAO-B) was incubated on ice for 15 minutes in the reaction buffer, in the absence and/or in the presence of various concentrations of inhibitor (e.g., from 0 to 50 μM, depending on the inhibitor strength).
(§2) After leaving the enzyme(s) interacting with the inhibitor, 60 to 90 μM of kynuramine was added to each reaction for MAO-B and MAO-A assay respectively, and the reaction was left for 1 hour at 37° C. in the dark. The oxidative deamination of the substrate was stopped by adding 50 μL (v/v) of NaOH 2N. The conversion of kynuramine to 4-hydroxyquinoline, was monitored by fluorescence (excitation at 320 nm, emission at 360 nm) using a microplate reader (Infinite 200, Tecan). Arbitrary units were used to measure levels of fluorescence produced in the absence and/or in the presence of inhibitor.
(§3) The Ki (IC50) of each inhibitor was determined at Vmax/2.

[2] = system: H3K4 methylation in SH-SY5Y cells; experiment: Western blot for dimethylated H3-K4 in cells grown with compound; assay type: cell-based
Source text: FIG. 3 Compound Dual-1 Increases Histone Methylation.
B-actin was used as a loading control.

[3] = system: K562 chronic myelogenous leukemia cells; experiment: In vitro cytotoxicity, fluorometry-based cell viability, K562; conditions: Homo sapiens, K562, 72 h
Method: (§4) K562 chronic myelogenous leukemia cells were seeded at different cell densities in 96-well plates. 24 hours later, compounds were added at serial dilutions.

[4] = target: T2, Human recombinant monoamine oxidase MAO-B (Homo sapiens, UniProt P27338); experiment: MAO-B inhibition, kynuramine fluorescence assay; assay type: biochemical
T2 construct: purchased Sigma Aldrich
T2 sequence (P27338 1-520): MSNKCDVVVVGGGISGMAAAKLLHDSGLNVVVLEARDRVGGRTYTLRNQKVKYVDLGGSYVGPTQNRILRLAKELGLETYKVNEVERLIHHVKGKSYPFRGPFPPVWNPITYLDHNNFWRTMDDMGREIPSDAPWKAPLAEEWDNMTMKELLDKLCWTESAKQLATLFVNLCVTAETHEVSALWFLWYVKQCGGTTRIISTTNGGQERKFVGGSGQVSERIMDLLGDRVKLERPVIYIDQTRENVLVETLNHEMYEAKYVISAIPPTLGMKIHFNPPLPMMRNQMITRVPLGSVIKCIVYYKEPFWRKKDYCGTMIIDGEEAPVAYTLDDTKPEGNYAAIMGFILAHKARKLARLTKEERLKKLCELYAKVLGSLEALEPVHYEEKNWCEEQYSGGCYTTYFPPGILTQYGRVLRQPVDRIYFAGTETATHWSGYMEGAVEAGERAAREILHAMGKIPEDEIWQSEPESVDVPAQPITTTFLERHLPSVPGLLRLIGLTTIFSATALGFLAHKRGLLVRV
Source text: as §1
The monoamine oxidase activity was estimated by measuring the conversion of kynuramine into 4-hydroxyquinoline. […]
as §2, with “The oxidative deamination of the substrate was stopped by adding 50 μL (v/v) of NaOH 2N.” left out
as §3

[5] = system: HL-60 (acute promyelocytic leukemia); experiment: In vitro cytotoxicity, HL-60; assay type: cell-based; conditions: Homo sapiens; HL-60, same protocol as K562
Method: as §4
(§5) Following the same protocol, in vitro cytotoxicity against other hematological cancer cell lines was tested.

[6] = system: Jurkat (acute T cell leukemia); experiment: In vitro cytotoxicity, Jurkat; assay type: cell-based; conditions: Homo sapiens, same protocol as K562
Method: as §4, §5

[7] = system: RPMI-8226 (Multiple myeloma); experiment: In vitro cytotoxicity, RPMI-8226; assay type: cell-based; conditions: Homo sapiens; RPMI-8226, same protocol as K562
Method: as §4, §5

[8] = 3 mg/kg intraperitoneal once daily for 5 days
[9] = 10 mg/kg intraperitoneal once daily for 5 days
[10] = 20 mg/kg intraperitoneal once daily for 5 days
[11] = 40 mg/kg intraperitoneal once daily for 5 days
[12] = 30 mg/kg intraperitoneal once daily for 5 days
[13] = read-out: EC50 (μM), concentration at which 50% of the cells remain viable, K562, cell density 3xA, 72h after compound addition
[14] = read-out: EC50 (μM), concentration at which 50% of the cells remain viable, K562, cell density 10xA, 72h after compound addition
[15] = read-out: EC50 (μM), concentration at which 50% of the cells remain viable, K562, cell density A, 72h after compound addition

Structure (SMILES) | % platelets vs. Vehicle (platelets; [9]) | IC50 (LSD1) | IC50 [1] | EC50 [3, 13] | EC50 [3, 14] | EC50 [3, 15] | other results
CN1CCN(C(=O)CN[C@H]2C[C@@H]2c2ccc(OCc3ccccc3)cc2)CC1 (racemic) [Compound 3] | 5% |  |  |  |  |  | % platelets vs. Vehicle (platelets; 1 mg/kg intraperitoneal once daily for 5 days): 46%; % platelets vs. Vehicle (platelets; [8]): 16%
NC(=O)CN[C@H]1CC1c1ccc(OCc2ccccc2)cc1 (stereo partly drawn) [Compound 1] | 66% | < 0.2 µM | > 2 µM |  |  |  | % platelets vs. Vehicle (platelets; 5 mg/kg intraperitoneal once daily for 5 days): 91%; % platelets vs. Vehicle (platelets; [10]): 55%; % platelets vs. Vehicle (platelets; [11]): 34%; H3K4 methylation in cells (western blot) ([2]; SH-SY5Y cells grown with compound for 1, 2, and 3 days, Dual-1 at 100 μM (FIG. 3)): increases H3K4 (4 methylation in cells in a time dependent manner; potency at increasing global dimethylated H3K4 levels as compared to tranylcypromine ([2]; SH-SY5Y cells, Dual-1 at 100 μM, parnate at 250 μM): ≥ 10 fold
NC(=O)CN[C@@H]1C[C@H]1c1ccc(OCc2ccccc2)cc1 [Compound 2] |  | < 0.2 µM | > 2 µM |  |  |  | % platelets vs. Vehicle (platelets; [10]): 35%; % platelets vs. Vehicle (platelets; [11]): 27%; % platelets vs. Vehicle (platelets; 60 mg/kg intraperitoneal once daily for 5 days): 16%
N[C@H]1C[C@@H]1c1ccc(-c2cccc(C(F)(F)F)c2)nc1 [Compound 4] | 19% |  |  |  |  |  | % platelets vs. Vehicle (platelets; [8]): 87%; % platelets vs. Vehicle (platelets; 9 mg/kg intraperitoneal once daily for 5 days): 30%; % platelets vs. Vehicle (platelets; 18 mg/kg intraperitoneal once daily for 5 days): 19%; % platelets vs. Vehicle (platelets; [12]): 7%; % platelets vs. Vehicle (platelets; 36 mg/kg intraperitoneal once daily for 5 days): 11%
N[C@H]1CCN(CCN[C@H]2C[C@@H]2c2ccc(-c3cccc(C(F)(F)F)c3)cc2)C1 [Compound 5] | 87% |  |  |  |  |  | % platelets vs. Vehicle (platelets; [12]): 63%
N[C@H]1CC1c1ccc(-c2cccc(O)c2)cc1 (stereo partly drawn) [Compound 6] |  | < 0.07 µM | > 1 µM | 10.3 µM | 16.8 µM | 16.2 µM | % platelets vs. Vehicle (platelets; 17 mg/kg intraperitoneal once daily for 5 days): 56%; % platelets vs. Vehicle (platelets; 34 mg/kg intraperitoneal once daily for 5 days): 46%; % platelets vs. Vehicle (platelets; 52 mg/kg intraperitoneal once daily for 5 days): 63%; IC50 [4]: > 1 µM
CC(C)S(=O)(=O)Nc1cccc(-c2ccc([C@H]3C[C@@H]3N)cc2)c1 [Compound 8] |  | < 0.07 µM | > 1 µM | 16.3 µM | 19.7 µM | 17.2 µM | GI50 [5]: 21.2 µM; GI50 [6]: 18.2 µM; GI50 [7]: 35.6 µM; IC50 [4]: > 10 µM
CC(C)S(=O)(=O)Nc1cccc(-c2ccc([C@H]3C[C@@H]3N)cn2)c1 [Compound 9] |  |  |  | 57.1 µM | 95.1 µM | 31.5 µM | 
N[C@H]1C[C@@H]1c1ccc(-c2cccc(NS(=O)(=O)c3ccccc3)c2)cc1 [Compound 10] |  |  |  | 13.2 µM | 17.4 µM | 14.8 µM | 
